Laboratory results as given in patent US10435399B2, “HDAC6 inhibitory heterocyclic compound” (TAKEDA PHARMACEUTICAL COMPANY LIMITED, priority 2017, dated 2019).

The compounds below were run against T1, HDAC6 enzyme (Homo sapiens, UniProt Q9UBN7) (assay: HDAC6 enzyme inhibitory activity (HDAC-Glo I/II Assay kit)). Conditions: 10 μM; wells without enzyme = 100% inhibition.
T1 construct: transducing full length HDAC6 gene into Sf-9 insect cells; GST; purchased SignalChem; host or cells: Sf-9 insect cells
T1 sequence (Q9UBN7 1-1215): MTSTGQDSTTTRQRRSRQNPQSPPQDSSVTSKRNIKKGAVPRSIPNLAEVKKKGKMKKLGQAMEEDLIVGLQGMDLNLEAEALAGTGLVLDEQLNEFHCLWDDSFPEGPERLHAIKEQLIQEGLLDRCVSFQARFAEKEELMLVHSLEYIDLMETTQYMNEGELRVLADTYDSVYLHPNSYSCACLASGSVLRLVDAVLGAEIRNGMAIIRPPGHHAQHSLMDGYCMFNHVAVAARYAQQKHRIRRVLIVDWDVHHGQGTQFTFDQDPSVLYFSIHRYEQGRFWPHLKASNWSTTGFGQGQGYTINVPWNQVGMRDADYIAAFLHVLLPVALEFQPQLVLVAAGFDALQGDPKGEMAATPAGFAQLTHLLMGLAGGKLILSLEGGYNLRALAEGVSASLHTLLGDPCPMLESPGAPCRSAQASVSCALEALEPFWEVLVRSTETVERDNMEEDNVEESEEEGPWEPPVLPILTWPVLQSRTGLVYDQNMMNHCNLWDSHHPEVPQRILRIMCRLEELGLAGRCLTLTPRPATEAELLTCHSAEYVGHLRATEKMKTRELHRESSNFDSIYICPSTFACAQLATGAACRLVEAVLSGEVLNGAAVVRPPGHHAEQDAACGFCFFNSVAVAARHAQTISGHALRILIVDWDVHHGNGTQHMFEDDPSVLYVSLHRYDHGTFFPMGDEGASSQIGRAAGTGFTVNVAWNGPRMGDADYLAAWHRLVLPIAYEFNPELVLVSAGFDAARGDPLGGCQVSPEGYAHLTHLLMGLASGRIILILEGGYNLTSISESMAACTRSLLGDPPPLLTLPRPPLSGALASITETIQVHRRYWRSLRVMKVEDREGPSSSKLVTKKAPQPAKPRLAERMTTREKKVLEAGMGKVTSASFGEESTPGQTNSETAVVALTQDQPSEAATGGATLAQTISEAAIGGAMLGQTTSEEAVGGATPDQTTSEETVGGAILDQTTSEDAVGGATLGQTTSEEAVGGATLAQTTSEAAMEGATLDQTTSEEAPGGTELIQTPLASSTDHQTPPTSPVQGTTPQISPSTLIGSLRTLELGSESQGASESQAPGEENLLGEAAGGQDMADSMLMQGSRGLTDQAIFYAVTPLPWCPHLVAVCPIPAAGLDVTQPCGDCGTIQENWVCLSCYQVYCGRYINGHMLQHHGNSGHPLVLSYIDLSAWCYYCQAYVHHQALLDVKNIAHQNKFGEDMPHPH
Format: biochemical
Procedure, shortened: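 Luminescent HDAC-Glo I/II readout after 20 min room-temperature reaction with substrate-developer, following 60 min compound–enzyme preincubation. Enzyme: full-length HDAC6 from Sf-9 cells, GST-purified; buffer 24 mM Tris-HCl pH 7.5, 0.01% Tween-20, glutathione, salts. Wells lacking enzyme define 100% inhibition.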
For `O=C1c2cc(-c3nnc(C(F)F)o3)ccc2CN1N1CCC(F)(F)CC1c1ccc(F)cn1` (stereo not drawn) [Example 610, 2-(4,4-Difluoro-2-(5-fluoropyridin-2-yl)piperidin-1-yl)-6-(5-(difluoromethyl)-1,3,4-oxadiazol-2-yl)isoindolin-1-one (Optical Isomer)], the “HDAC6 inhibitory rate (%) (10 μM)” value was 99%.

Same assay, conditions: 10 μM; wells without enzyme = 100% inhibition; read-out: HDAC6 inhibitory rate (%) (10 μM)
`N#CC1(c2ccc(-c3ccccc3N3Cc4ccc(-c5nnc(C(F)F)o5)cc4C3=O)cc2)CC1` [Example 316, 1-(2′-(6-(5-(difluoromethyl)-1,3,4-oxadiazol-2-yl)-1-oxo-1,3-dihydro-2H-isoindol-2-yl)-biphenyl-4-yl)cyclopropane-carbonitrile] gave an inhibition at 10 µM of 92%. `COc1cccc(-c2cn(C)nc2N2Cc3ccc(-c4nnc(C(F)F)o4)cc3C2=O)c1` [Example 447, 6-(5-(difluoro-methyl)-1,3,4-oxadiazol-2-yl)-2-(4-(3-methoxy-phenyl)-1-methyl-1H-pyrazol-3-yl) isoindolin-1-one] gave an inhibition at 10 µM of 100%. In the case of `Cc1cc(CN2Cc3ncc(-c4nnc(C(F)F)o4)cc3C2=O)no1` [Example 349, 3-(5-(difluoromethyl)-1,3,4-oxadiazol-2-yl)-6-((5-methyl-1,2-oxazol-3-yl)methyl)-6,7-dihydro-5H-pyrrolo[3,4-b]pyridin-5-one], the inhibition at 10 µM is reported as 99%. `O=C1c2cc(-c3nnc(C(F)F)o3)ccc2CN1c1ccnn1-c1cccc(Cl)c1` [Example 472, 2-(1-(3-chloro-phenyl)-1H-pyrazol-5-yl)-6-(5-(difluoro-methyl)-1,3,4-oxadiazol-2-yl) isoindolin-1-one] was tested, and the inhibition at 10 µM was 100%. Compound `O=C1c2cc(-c3nnc(C(F)F)o3)cnc2CN1Cc1ccncc1` [Example 346, 3-(5-(difluoromethyl)-1,3,4-oxadiazol-2-yl)-6-(pyridin-4-ylmethyl)-6,7-dihydro-5H-pyrrolo[3,4-b]pyridin-5-one] has an inhibition at 10 µM of 94%. `O=C1c2cc(-c3nnc(C(F)F)o3)cc(F)c2CN1C[C@@H]1CCCN1S(=O)(=O)CC(F)(F)F` [Example 380, 6-(5-(difluoro-methyl)-1,3,4-oxadiazol-2-yl)-4-fluoro-2-(((2S)-1-((2,2,2-trifluoroethyl)sulfonyl)pyrrolidin-2-yl)methyl) isoindolin-1-one] showed an inhibition at 10 µM of 99%. For `O=C(N[C@@H]1CCOC[C@H]1N1Cc2c(F)cc(-c3nnc(C(F)F)o3)cc2C1=O)c1cccc(Cl)c1` [Example 181, 3-chloro-N-((3S,4R)-3-(6-(5-(difluoromethyl)-1,3,4-oxadiazol-2-yl)-4-fluoro-1-oxo-1,3-dihydro-2H-isoindol-2-yl)tetrahydro-2H-pyran-4-yl)benzamide], the inhibition at 10 µM was 97%. In the case of `O=C1c2cc(-c3nnc(C(F)F)o3)ccc2CN1[C@H]1CCCC[C@H]1n1cccn1` (relative stereo) [Example 542, 6-(5-(difluoromethyl)-1,3,4-oxadiazol-2-yl)-2-((1S*,2R*)-2-(1H-pyrazol-1-yl)cyclohexyl)isoindolin-1-one (optical isomer)], the inhibition at 10 µM is reported as 90%. For `CC(=O)N(c1ccccn1)[C@@H]1CCCC[C@H]1N1Cc2ccc(-c3nnc(C(F)F)o3)cc2C1=O` [Example 264, N-((1R,2R)-2-(6-(5-(difluoromethyl)-1,3,4-oxadiazol-2-yl)-1-oxo-1,3-dihydro-2H-isoindol-2-yl)cyclohexyl)-N-(pyridin-2-yl) acetamide], the inhibition at 10 µM was 101%. For `O=C1c2cc(-c3nnc(C(F)F)o3)ccc2CN1c1ccnn1-c1cccc(F)c1` [Example 453, 6-(5-(difluoro-methyl)-1,3,4-oxadiazol-2-yl)-2-(1-(3-fluoro-phenyl)-1H-pyrazol-5-yl) isoindolin-1-one], the inhibition at 10 µM was 99%. In the case of `CC(C)(C)OC(=O)N[C@@H]1COCC[C@H]1N1Cc2c(F)cc(-c3nnc(C(F)F)o3)cc2C1=O` [Example 167, tert-butyl ((3S,4R)-4-(6-(5-(difluoromethyl)-1,3,4-oxadiazol-2-yl)-4-fluoro-1-oxo-1,3-dihydro-2H-isoindol-2-yl)tetrahydro-2H-pyran-3-yl)carbamate], the inhibition at 10 µM is reported as 100%. For `O=C1c2cc(-c3nnc(C(F)F)o3)cc(F)c2CN1C[C@H]1COCCN1S(=O)(=O)c1ccccc1F` [Example 251, 6-(5-(difluoromethyl)-1,3,4-oxadiazol-2-yl)-4-fluoro-2-(((3S)-4-((2-fluorophenyl)-sulfonyl)morpholin-3-yl)-methyl)isoindolin-1-one], the inhibition at 10 µM was 100%. Compound `O=C1c2cc(-c3nnc(C(F)F)o3)cnc2CN1[C@@H]1CCCC[C@H]1NC(=O)C1(C(F)(F)F)CCC1` [Example 219] has an inhibition at 10 µM of 100%. Work on `O=C(N[C@@H]1CCCC[C@H]1N1Cc2ncc(-c3nnc(C(F)F)o3)cc2C1=O)c1cccc(C(F)(F)F)c1` [Example 226, N-((1R,2R)-2-(3-(5-(difluoromethyl)-1,3,4-oxadiazol-2-yl)-5-oxo-5,7-dihydro-6H-pyrrolo[3,4-b]pyridin-6-yl)cyclohexyl)-3-(trifluoromethyl)-benzamide] yielded an inhibition at 10 µM of 99%. Work on `O=C1c2cc(-c3nnc(C(F)F)o3)ccc2CN1c1ccc(F)cc1C1CCN(C(=O)C(F)(F)C(F)(F)F)CC1` [Example 533, 6-(5-(difluoromethyl)-1,3,4-oxadiazol-2-yl)-2-(4-fluoro-2-(1-(2,2,3,3,3-pentafluoropropanoyl)piperidin-4-yl)phenyl)isoindolin-1-one] yielded an inhibition at 10 µM of 98%. `CCC(=O)N[C@@H]1CCCC[C@H]1N1Cc2ncc(-c3nnc(C(F)F)o3)cc2C1=O` [Example 461, N-((1R,2R)-2-(3-(5-(difluoro-methyl)-1,3,4-oxadiazol-2-yl)-5-oxo-5,7-dihydro-6H-pyrrolo[3,4-b]pyridin-6-yl)cyclohexyl) propanamide] showed an inhibition at 10 µM of 100%. Compound `O=C(N[C@@H]1CCCC[C@H]1N1Cc2ccc(-c3nnc(C(F)F)o3)cc2C1=O)[C@@H]1CC1(F)F` [Example 18, (1S)—N-((1R,2R)-2-(6-(5-(difluoromethyl)-1,3,4-oxadiazol-2-yl)-1-oxo-1,3-dihydro-2H-isoindol-2-yl)cyclohexyl)-2,2-difluorocyclopropanecarboxamide] has an inhibition at 10 µM of 100%. `O=C1c2cc(-c3nnc(C(F)F)o3)cc(F)c2CN1[C@@H]1CCCC[C@H]1NC(=O)C(F)(F)F` [Example 183, N-((1R,2R)-2-(6-(5-(difluoromethyl)-1,3,4-oxadiazol-2-yl)-4-fluoro-1-oxo-1,3-dihydro-2H-isoindol-2-yl)cyclohexyl)-2,2,2-trifluoroacetamide] showed an inhibition at 10 µM of 99%. Work on `CNC(=O)O[C@@H]1CCCC[C@H]1N1Cc2ccc(-c3nnc(C(F)F)o3)cc2C1=O` [Example 154, (1R,2R)-2-(6-(5-(difluoromethyl)-1,3,4-oxadiazol-2-yl)-1-oxo-1,3-dihydro-2H-isoindol-2-yl)cyclohexyl methylcarbamate] yielded an inhibition at 10 µM of 98%. For `O=C1c2cc(-c3nnc(C(F)F)o3)cnc2CN1Cc1ccccc1OC(F)(F)F` [Example 437, 3-(5-(difluoro-methyl)-1,3,4-oxadiazol-2-yl)-6-(2-(trifluoro-methoxy)benzyl)-6,7-dihydro-5H-pyrrolo [3,4-b]pyridin-5-one], the inhibition at 10 µM was 101%. With `O=C1c2cc(-c3nnc(C(F)F)o3)ccc2CN1C[C@H]1COCCN1C(=O)C1CCCC1` [Example 47] the inhibition at 10 µM was 99%. With `CCC(=O)N[C@@H]1CCCC[C@H]1N1C(=O)c2ccc(-c3nnc(C(F)F)o3)cc2C1=O` [Example 166, N-((1R,2R)-2-(5-(5-(difluoromethyl)-1,3,4-oxadiazol-2-yl)-1,3-dioxo-1,3-dihydro-2H-isoindol-2-yl)cyclohexyl)propanamide] the inhibition at 10 µM was 97%. With `O=C1c2cc(-c3nnc(C(F)F)o3)ccc2CN1N1CCOCC1c1ccc(F)cc1` (stereo not shown) [Example 617, 6-(5-(difluoromethyl)-1,3,4-oxadiazol-2-yl)-2-(3-(4-fluorophenyl)morpholin-4-yl)isoindolin-1-one] the inhibition at 10 µM was 100%. With `O=C(N[C@@H]1COCC[C@H]1N1Cc2c(F)cc(-c3nnc(C(F)F)o3)cc2C1=O)c1ccccc1Cl` [Example 189, 2-chloro-N-((3S,4R)-4-(6-(5-(difluoromethyl)-1,3,4-oxadiazol-2-yl)-4-fluoro-1-oxo-1,3-dihydro-2H-isoindol-2-yl)tetrahydro-2H-pyran-3-yl)benzamide] the inhibition at 10 µM was 100%.
